± gives the expanded uncertainty stated by the source.

What is called mass density is the mass of a sample divided by its volume. By viscosity is commonly meant the resistance of a fluid to flow.

The conditions of data set [1]: 101 kPa, Liquid.
The nature of data set [2]: xn = mol fraction of the nth substance listed. The note with it: 101 kPa, Liquid, x2 = 0.

Regarding `C[S+](C)[O-]` [dimethyl sulfoxide], the mass density in data set [1] (298.15 K) is 1096.29 ± 0.28 kg/m3; in data set [1] (303.15 K), 1091.44 ± 0.28 kg/m3; in data set [1] (308.15 K) it was 1086.41 ± 0.27 kg/m3; in data set [1] (313.15 K), 1081.59 ± 0.26 kg/m3; in data set [1] (318.15 K) it was 1076.46 ± 0.25 kg/m3. Further, the viscosity in data set [1] (298.15 K) worked out at 1.996 ± 0.024 mPa·s; in data set [1] (303.15 K), 1.836 ± 0.022 mPa·s; in data set [1] (308.15 K), 1.669 ± 0.02 mPa·s; in data set [1] (313.15 K) it was 1.535 ± 0.019 mPa·s; in data set [1] (318.15 K), 1.393 ± 0.017 mPa·s.
With `O` [water] + C[S+](C)[O-], the viscosity in data set [2] (298.15 K) stood at 0.8901 ± 0.012 mPa·s; in data set [2] (303.15 K) it was 0.7973 ± 0.011 mPa·s; in data set [2] (308.15 K) it was 0.7193 ± 0.0098 mPa·s; in data set [2] (313.15 K), 0.653 ± 0.009 mPa·s; in data set [2] (318.15 K), 0.5961 ± 0.0083 mPa·s.

(Values after the NIST ThermoML archive (doi:10.1016/j.jct.2006.12.012).)
